From patent US20240101570A1 (AMGEN INC., priority 2020, published 2024)

Key:
HCT116 WT cells = assay: HCT116 WT cell proliferation / viability (CellTiter-Glo, 6 days); format: cell-based; conditions: Homo sapiens, HCT-116, 144 h, HCT116 WT cells, 6 days, CellTiter-Glo; read-out: HCT-116 WT IC50
Procedure, shortened: (§1)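 CellTiter-Glo luminescence, 6-day exposure, RPMI 1640 + 10% FBS. Dosing: 1:3 series (8-9 pts, top 1 or 10 μM) or 1:2 series (22 pts, top 10 or 50 μM), DMSO control. IC50 = 50% of control via curve fit.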

HCT116 MTAP null cells = assay: HCT116 MTAP null cell proliferation / viability (CellTiter-Glo, 6 days); format: cell-based; conditions: HCT116-MTAP null, 144 h, HCT116 MTAP null cells, 6 days, CellTiter-Glo; read-out: HCT-116 MTAP null IC50
Procedure, shortened: as §1

Compound	IC50 (HCT116 WT cells) [nM]	IC50 (HCT116 MTAP null cells) [nM]
CCN(Cc1ccc(C(F)(F)F)cn1)C(=O)c1cc2c3c(c(N)nc2cn1)COC3 [Example 361, 4-amino-N-ethyl-N-((5-(trifluoromethyl)-2-pyridinyl)methyl)-1,3-dihydrofuro[3,4-c][1,7]naphthyridine-8-carboxamide]	7750	173
Nc1nc2cnc(C(=O)N(Cc3ccc(C(F)(F)F)cn3)C3CC3)cc2c2c1COC2 [Example 365, 4-amino-N-cyclopropyl-N-((5-(trifluoromethyl)-2-pyridinyl)methyl)-1,3-dihydrofuro[3,4-c][1,7]naphthyridine-8-carboxamide]	6500	76
CC(C)N(Cc1ccc(C(F)(F)F)nn1)C(=O)c1cc2c3c(c(N)nc2cn1)COC3 [Example 366, 4-amino-N-(2-propanyl)-N-((6-(trifluoromethyl)-3-pyridazinyl)methyl)-1,3-dihydrofuro[3,4-c][1,7]naphthyridine-8-carboxamide]	12500	175
CN(Cc1ccc(C#N)cn1)C(=O)c1cc2c3c(c(N)nc2cn1)COC3 [Example 367, 4-amino-N-((5-cyano-2-pyridinyl)methyl)-N-methyl-1,3-dihydrofuro[3,4-c][1,7]naphthyridine-8-carboxamide]	> 50000	2280
Nc1nc2cc(F)c(C(=O)N(Cc3ccc(C(F)(F)F)cn3)C3CC3)cc2c2c1COC2 [Example 369, 4-amino-N-cyclopropyl-7-fluoro-N-((5-(trifluoromethyl)-2-pyridinyl)methyl)-1,3-dihydrofuro[3,4-c]quinoline-8-carboxamide]	5040	124
CN(Cc1ccc(C2CC2)cn1)C(=O)c1cc2c3c(c(N)nc2cc1F)COC3 [Example 372, 4-amino-N-((5-cyclopropyl-2-pyridinyl)methyl)-7-fluoro-N-methyl-1,3-dihydrofuro[3,4-c]quinoline-8-carboxamide]	5610	110
CN(Cc1ccc(C(F)(F)F)nn1)C(=O)c1cc2c3c(c(N)nc2cn1)COC3 [Example 375, 4-amino-N-methyl-N-((6-(trifluoromethyl)-3-pyridazinyl)methyl)-1,3-dihydrofuro[3,4-c][1,7]naphthyridine-8-carboxamide]	6890	1500
C[C@H]1OCc2c1c(N)nc1ccc(C(=O)N(C)Cc3ccc(C(F)(F)F)cn3)cc21 [Example 376, (3R)-4-amino-N,3-dimethyl-N-((5-(trifluoromethyl)-2-pyridinyl)methyl)-1,3-dihydrofuro[3,4-c]quinoline-8-carboxamide]	15200	222
CCOc1ccc(CN(C(=O)c2cc3c4c(c(N)nc3cn2)COC4)C23CC(C2)C3)nn1 [Example 378, 4-amino-N-(bicyclo[1.1.1]pentan-1-yl)-N-((6-ethoxy-3-pyridazinyl)methyl)-1,3-dihydrofuro[3,4-c][1,7]naphthyridine-8-carboxamide]	9430	294
C[C@H]1OCc2c1c(N)nc1ccc(C(=O)N(Cc3ccc(C(F)(F)F)cn3)C34CC(C3)C4)cc21 [Example 380, (3R)-4-amino-N-(bicyclo[1.1.1]pentan-1-yl)-3-methyl-N-((5-(trifluoromethyl)-2-pyridinyl)methyl)-1,3-dihydrofuro[3,4-c]quinoline-8-carboxamide]	4100	56

These reach a lower IC50 (HCT116 WT cells). Values come first.

IC50 (HCT116 WT cells) [nM]	IC50 (HCT116 MTAP null cells) [nM]	Compound
3260	65	C[C@H]1OCc2c1c(N)nc1ccc(C(=O)N(Cc3ccc(C4CC4)cn3)C3CC3)cc21 [Example 368, (3R)-4-amino-N-cyclopropyl-N-((5-cyclopropyl-2-pyridinyl)methyl)-3-methyl-1,3-dihydrofuro[3,4-c]quinoline-8-carboxamide]
3070	53	CCN(Cc1ccc(C(F)(F)F)cn1)C(=O)c1ccc2nc(N)c3c(c2c1)CO[C@@H]3C [Example 360, (3R)-4-amino-N-ethyl-3-methyl-N-((5-(trifluoromethyl)-2-pyridinyl)methyl)-1,3-dihydrofuro[3,4-c]quinoline-8-carboxamide]
2980	22	CCOc1ccc(CN(C(=O)c2ccc3nc(N)c4c(c3c2)COC4)[C@H](C)COC)nn1 [Example 373, 4-amino-N-((6-ethoxy-3-pyridazinyl)methyl)-N-((2R)-1-methoxy-2-propanyl)-1,3-dihydrofuro[3,4-c]quinoline-8-carboxamide]
2210	76	CCN(Cc1ccc(C(F)(F)F)cn1)C(=O)c1ccc2nc(N)c3c(c2c1)COC3 [Example 362, 4-amino-N-ethyl-N-((5-(trifluoromethyl)-2-pyridinyl)methyl)-1,3-dihydrofuro[3,4-c]quinoline-8-carboxamide]
2060	49	CC(C)N(Cc1ccc(C2CC2)cn1)C(=O)c1ccc2nc(N)c3c(c2c1)CO[C@@H]3C [Example 377, (3R)-4-amino-N-((5-cyclopropyl-2-pyridinyl)methyl)-3-methyl-N-(2-propanyl)-1,3-dihydrofuro[3,4-c]quinoline-8-carboxamide]
1760	58	CC(C)N(Cc1ccc(C2CC2)cn1)C(=O)c1ccc2nc(N)c3c(c2c1)COC3 [Example 364, 4-amino-N-((5-cyclopropyl-2-pyridinyl)methyl)-N-(2-propanyl)-1,3-dihydrofuro[3,4-c]quinoline-8-carboxamide]
1560	8	Nc1nc2cc(F)c(C(=O)N(Cc3ccc(C(F)(F)F)cn3)C34CC(C3)C4)cc2c2c1COC2 [Example 381, 4-amino-N-(bicyclo[1.1.1]pentan-1-yl)-7-fluoro-N-((5-(trifluoromethyl)-2-pyridinyl)methyl)-1,3-dihydrofuro[3,4-c]quinoline-8-carboxamide]
1370	29	Nc1nc2cc(F)c(C(=O)N(Cc3ccc(C4CC4)cn3)C3CC3)cc2c2c1COC2 [Example 370, 4-amino-N-cyclopropyl-N-((5-cyclopropyl-2-pyridinyl)methyl)-7-fluoro-1,3-dihydrofuro[3,4-c]quinoline-8-carboxamide]
1180	36	CC(C)N(Cc1ccc(C2CC2)nc1)C(=O)c1cc2c3c(c(N)nc2cc1F)COC3 [Example 363, 4-amino-N-((6-cyclopropyl-3-pyridinyl)methyl)-7-fluoro-N-(2-propanyl)-1,3-dihydrofuro[3,4-c]quinoline-8-carboxamide]
764	25	CC(C)N(Cc1ccc(C2CC2)cn1)C(=O)c1cc2c3c(c(N)nc2cc1Cl)COC3 [Example 379, 4-amino-7-chloro-N-((5-cyclopropyl-2-pyridinyl)methyl)-N-(2-propanyl)-1,3-dihydrofuro[3,4-c]quinoline-8-carboxamide]
288	10	CC(C)N(Cc1ccc(C2CC2)cn1)C(=O)c1cc2c3c(c(N)nc2cc1F)COC3 [Example 371, 4-amino-N-((5-cyclopropyl-2-pyridinyl)methyl)-7-fluoro-N-(2-propanyl)-1,3-dihydrofuro[3,4-c]quinoline-8-carboxamide]
286	14	CCOc1ccc(CN(C(=O)c2ccc3nc(N)c4c(c3c2)CO[C@@H]4C)[C@H](C)COC)nn1 [Example 374, (3R)-4-amino-N-((6-ethoxy-3-pyridazinyl)methyl)-N-((2R)-1-methoxy-2-propanyl)-3-methyl-1,3-dihydrofuro[3,4-c]quinoline-8-carboxamide]
